Source: article PMC4167230, “Hydrophobic Substituents of the Phenylmethylsulfamide Moiety Can Be Used for the Development of New Selective Carbonic Anhydrase Inhibitors” (BioMed Research International, 2014)

Key:
Assay in all cases: stopped-flow CO2 hydration assay
Assay type in all cases: biochemical
hCA I = biological target: T1, hCA I (Homo sapiens, UniProt P00915); details: read-out: K I (nM)∗ / hCA I
T1 construct: gene CA1; cytosolic isoform
Source text: stopped-flow CO2 hydration assay on hCA I

hCA II = biological target: T2, hCA II (Homo sapiens, UniProt P00918); details: read-out: K I (nM)∗ / hCA II
T2 construct: gene CA2; cytosolic isoform; one molecule in the asymmetric unit
Source text: stopped-flow CO2 hydration assay on hCA II

hCA XII = biological target: T3, hCA XII (Homo sapiens, UniProt O43570); details: read-out: K I (nM)∗ / hCA XII
T3 construct: gene CA12; transmembrane isoform
Source text: stopped-flow CO2 hydration assay on hCA XII

T1 sequence (P00915 2-261): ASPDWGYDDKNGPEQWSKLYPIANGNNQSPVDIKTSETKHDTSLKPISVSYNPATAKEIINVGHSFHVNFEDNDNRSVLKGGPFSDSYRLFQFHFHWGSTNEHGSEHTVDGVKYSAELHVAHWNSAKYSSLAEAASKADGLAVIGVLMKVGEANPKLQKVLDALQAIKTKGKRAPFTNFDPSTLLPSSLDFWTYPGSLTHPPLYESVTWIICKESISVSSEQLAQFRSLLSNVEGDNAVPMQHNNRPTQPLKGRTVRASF
T3 sequence (O43570 25-354): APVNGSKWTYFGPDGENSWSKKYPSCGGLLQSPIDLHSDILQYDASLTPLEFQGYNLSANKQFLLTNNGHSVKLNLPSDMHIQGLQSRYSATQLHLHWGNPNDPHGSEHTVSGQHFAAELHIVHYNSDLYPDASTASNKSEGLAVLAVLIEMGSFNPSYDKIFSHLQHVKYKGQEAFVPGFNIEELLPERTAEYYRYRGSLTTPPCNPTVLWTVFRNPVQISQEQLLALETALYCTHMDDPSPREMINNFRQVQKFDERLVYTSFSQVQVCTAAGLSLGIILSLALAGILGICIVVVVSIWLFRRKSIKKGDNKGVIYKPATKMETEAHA

Row | SMILES | Ki (hCA I) [nM] | Ki (hCA II) [nM] | Ki (hCA XII) [nM]
1 | NS(=O)(=O)NCc1ccc(O)cc1 [compound 11, N-(4-Hydroxybenzyl)sulfuric Diamide] | 2180 | 74.1 | 5.8
2 | CC#CCOc1ccc(C=NS(N)(=O)=O)cc1 [compound 13, N-([4-(But-2-yn-1-yloxy)phenyl]methylidene)sulfuric Diamide] | 1940 | 9.8 | 8.4
3 | CC#CCOc1ccc(CNS(N)(=O)=O)cc1 [compound 14, N-[4-(But-2-yn-1-yloxy)benzyl]sulfuric Diamide] | 1810 | 9.5 | 8.1

Next, values leading:

Row | Ki (hCA I) [nM] | Ki (hCA II) [nM] | Ki (hCA XII) [nM] | SMILES
4 | 4050 | 134 | 6.6 | COc1ccc(CNS(N)(=O)=O)cc1 [compound 12, N-(4-Methoxybenzyl)sulfuric Diamide]
5 | 1650 | 188 | 6.5 | Cc1cc(COc2ccc(C=NS(N)(=O)=O)cc2)c2ccccc2n1 [compound 15, N-({4-[(2-Methylquinolin-4-yl)methoxy]phenyl}methylidene)sulfuric Diamide]
6 | 1440 | 43.3 | 6.6 | Cc1cc(COc2ccc(CNS(N)(=O)=O)cc2)c2ccccc2n1 [compound 16, N-{4-[(2-Methylquinolin-4-yl)methoxy]benzyl}sulfuric Diamide]
